# Experiments:
# rice flat sedge = assay: Test Example 3: herbicidal effect by foliage application, Wagner pot (Table 18, symbol E); type: in vivo, rice flat sedge (Cyperus iria)
# Method in brief: (§1)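 Plants were sown in alluvial soil held under 0.1–0.5 cm standing water and grown 14 days in a greenhouse at 25–30 °C. An emulsifiable formulation, water-diluted to the set dose, was then sprayed onto the foliage, and effects were scored three weeks later using previously defined criteria.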
# southern crabgrass [1] = assay: Test Example 4: herbicidal effect by soil treatment (Table 19, symbol F); type: in vivo, southern crabgrass (Digitaria ciliaris)
# Method in brief: (§2)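 Step 1: sow seeds in sterilized diluvial soil, cover ~1.5 cm. Step 2: spray diluted emulsion onto soil surface at predetermined rate. Step 3: greenhouse, 25–30° C, three weeks. Step 4: grade effect on each plant by earlier criteria.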
# false cleavers [2] = assay: Test Example 5: herbicidal effect by foliage application, plastic box (Table 20, symbol Q); type: in vivo, false cleavers (Galium spurium); conditions: foliage application, 320 g/ha
# Method in brief: (§3)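 Foliar spray test: emulsion formulation diluted in water to a set application rate, sprayed onto 14-day-old plants raised in diluvial soil at 25° C to 30° C under glass. Both herbicidal effect and crop effect rated visually three weeks later.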
# persian speedwell [3] = assay: Test Example 5: herbicidal effect by foliage application, plastic box (Table 20, symbol R); type: in vivo, Persian speedwell (Veronica persica); conditions: foliage application, 320 g/ha
# Method in brief: as §3
# lambsquarters [4] = assay: Test Example 5: herbicidal effect by foliage application, plastic box (Table 20, symbol O); type: in vivo, lambsquarters (Chenopodium album); conditions: foliage application, 320 g/ha
# Method in brief: as §3
# Italian ryegrass [5] = assay: Test Example 5: herbicidal effect by foliage application, plastic box (Table 20, symbol K); type: in vivo, Italian ryegrass (Lolium multiflorum); conditions: foliage application, 320 g/ha
# Method in brief: as §3
# Italian ryegrass [6] = assay: Test Example 4: herbicidal effect by soil treatment (Table 19, symbol K); type: in vivo, Italian ryegrass (Lolium multiflorum)
# Method in brief: as §2
# blackgrass [7] = assay: Test Example 5: herbicidal effect by foliage application, plastic box (Table 20, symbol J); type: in vivo, blackgrass (Alopecurus myosuroides); conditions: foliage application, 320 g/ha
# Method in brief: as §3
# Japanese bulrush = assay: Test Example 1: herbicidal activity, application before weed generation under submerged conditions (Table 16, symbol B); type: in vivo, Japanese bulrush (Schoenoplectus juncoides); conditions: 320 g/ha applied herbicide
# Method in brief: (§4)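 Emulsion formulation, water-diluted to set dose, was put onto the flooded surface (4 cm depth, alluvial soil) the same day weeds were sown and 2.5-leaf rice transplanted. After 3 weeks at 25-30 °C under glass, each species was rated 0 (≤5% kill) to 5 (≥90% kill).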
# barnyard grass [8] = assay: Test Example 3: herbicidal effect by foliage application, Wagner pot (Table 18, symbol H); type: in vivo, barnyard grass (Echinochloa crus-galli)
# Method in brief: as §1
# late watergrass = assay: Test Example 1: herbicidal activity, application before weed generation under submerged conditions (Table 16, symbol A); type: in vivo, late watergrass (Echinochloa oryzicola); conditions: 320 g/ha applied herbicide
# Method in brief: as §4
# green foxtail [9] = assay: Test Example 5: herbicidal effect by foliage application, plastic box (Table 20, symbol G); type: in vivo, green foxtail (Setaria viridis); conditions: foliage application, 320 g/ha
# Method in brief: as §3
# windgrass [10] = assay: Test Example 4: herbicidal effect by soil treatment (Table 19, symbol L); type: in vivo, windgrass (Apera spica-venti)
# Method in brief: as §2
# chickweed [11] = assay: Test Example 4: herbicidal effect by soil treatment (Table 19, symbol P); type: in vivo, common chickweed (Stellaria media)
# Method in brief: as §2
# southern crabgrass [12] = assay: Test Example 5: herbicidal effect by foliage application, plastic box (Table 20, symbol F); type: in vivo, southern crabgrass (Digitaria ciliaris); conditions: foliage application, 320 g/ha
# Method in brief: as §3
# velvetleaf [13] = assay: Test Example 5: herbicidal effect by foliage application, plastic box (Table 20, symbol M); type: in vivo, velvetleaf (Abutilon theophrasti); conditions: foliage application, 320 g/ha
# Method in brief: as §3
# oval-leafed pondweed = assay: Test Example 1: herbicidal activity, application before weed generation under submerged conditions (Table 16, symbol C); type: in vivo, oval-leafed pondweed (Monochoria vaginalis); conditions: 320 g/ha applied herbicide
# Method in brief: as §4
# windgrass [14] = assay: Test Example 5: herbicidal effect by foliage application, plastic box (Table 20, symbol L); type: in vivo, windgrass (Apera spica-venti); conditions: foliage application, 320 g/ha, 3 weeks after application
# Method in brief: as §3
# velvetleaf [15] = assay: Test Example 4: herbicidal effect by soil treatment (Table 19, symbol M); type: in vivo, velvetleaf (Abutilon theophrasti)
# Method in brief: as §2
# false cleavers [16] = assay: Test Example 4: herbicidal effect by soil treatment (Table 19, symbol Q); type: in vivo, false cleavers (Galium spurium)
# Method in brief: as §2
# barnyard grass [17] = assay: Test Example 4: herbicidal effect by soil treatment (Table 19, symbol H); type: in vivo, barnyard grass (Echinochloa crus-galli)
# Method in brief: as §2
# green foxtail [18] = assay: Test Example 4: herbicidal effect by soil treatment (Table 19, symbol G); type: in vivo, green foxtail (Setaria viridis)
# Method in brief: as §2
# persian speedwell [19] = assay: Test Example 4: herbicidal effect by soil treatment (Table 19, symbol R); type: in vivo, Persian speedwell (Veronica persica)
# Method in brief: as §2
# barnyard grass [20] = assay: Test Example 5: herbicidal effect by foliage application, plastic box (Table 20, symbol H); type: in vivo, barnyard grass (Echinochloa crus-galli); conditions: foliage application, 320 g/ha
# Method in brief: as §3
# Chinese sprangletop = assay: Test Example 3: herbicidal effect by foliage application, Wagner pot (Table 18, symbol D); type: in vivo, chinese sprangletop (Leptochloa chinensis)
# Method in brief: as §1
# redroot pigweed = assay: Test Example 4: herbicidal effect by soil treatment (Table 19, symbol N); type: in vivo, redroot pigweed (Amaranthus retroflexus)
# Method in brief: as §2
# lambsquarters [21] = assay: Test Example 4: herbicidal effect by soil treatment (Table 19, symbol O); type: in vivo, lambsquarters (Chenopodium album)
# Method in brief: as §2
# blackgrass [22] = assay: Test Example 4: herbicidal effect by soil treatment (Table 19, symbol J); type: in vivo, blackgrass (Alopecurus myosuroides)
# Method in brief: as §2
# wild oat [23] = assay: Test Example 5: herbicidal effect by foliage application, plastic box (Table 20, symbol I); type: in vivo, wild oat (Avena fatua); conditions: foliage application, 320 g/ha
# Method in brief: as §3
# wild oat [24] = assay: Test Example 4: herbicidal effect by soil treatment (Table 19, symbol I); type: in vivo, wild oat (Avena fatua)
# Method in brief: as §2
# chickweed [25] = assay: Test Example 5: herbicidal effect by foliage application, plastic box (Table 20, symbol P); type: in vivo, common chickweed (Stellaria media); conditions: foliage application, 320 g/ha, evaluated three weeks after application
# Method in brief: as §3
# [26] = amount of applied herbicide 320 g/ha
# [27] = evaluated three weeks after application
smiles,measurement,setting,value
COc1nn(C)c(=O)c(-c2c(-c3ccc4c(c3)OCCO4)sc3ccccc23)c1O [1-198],"herbicidal effect on E (rice flat sedge), rating 0-5",rice flat sedge; 320 g/ha,5 (Herbicidal rate of 90% or more (almost completely withered))
same,"F: southern crabgrass, herbicidal effect rating",southern crabgrass [1]; AAH 320 g/ha,0 (Herbicidal rate of 5% or less (almost no effect))
same,effect on false cleavers (Q),false cleavers [2]; 3 weeks after application,1 (Herbicidal rate of 5% or more and less than 20%)
same,effect on persian speedwell (R),persian speedwell [3]; 3 weeks after application,5 (Herbicidal rate of 90% or more (almost completely withered))
same,effect on lambsquarters (O),lambsquarters [4]; 3 weeks after application,2 (Herbicidal rate of 20% or more and less than 40%)
same,effect on Italian ryegrass (K),Italian ryegrass [5]; 3 weeks after application,4 (Herbicidal rate of 70% or more and less than 90%)
same,"K: Italian ryegrass, herbicidal effect rating",Italian ryegrass [6]; AAH 320 g/ha,0 (Herbicidal rate of 5% or less (almost no effect))
same,effect on blackgrass (J),blackgrass [7]; 3 weeks after application,0 (Herbicidal rate of 5% or less (almost no effect))
same,Herbicidal effect on B: Japanese bulrush (grade 0-5),Japanese bulrush,0 (Herbicidal rate of 5% or less (almost no effect))
same,"herbicidal effect on H (barnyard grass), rating 0-5",barnyard grass [8]; 320 g/ha,5 (Herbicidal rate of 90% or more (almost completely withered))
same,Herbicidal effect on A: late watergrass (grade 0-5),late watergrass,3 (Herbicidal rate of 40% or more and less than 70%)
same,effect on green foxtail (G),green foxtail [9]; 3 weeks after application,4 (Herbicidal rate of 70% or more and less than 90%)
same,"L: windgrass, herbicidal effect rating",windgrass [10]; AAH 320 g/ha,0 (Herbicidal rate of 5% or less (almost no effect))
same,"P: chickweed, herbicidal effect rating",chickweed [11]; AAH 320 g/ha,5 (Herbicidal rate of 90% or more (almost completely withered))
same,effect on southern crabgrass (F),southern crabgrass [12]; 3 weeks after application,4 (Herbicidal rate of 70% or more and less than 90%)
same,effect on velvetleaf (M),velvetleaf [13]; 3 weeks after application,4 (Herbicidal rate of 70% or more and less than 90%)
same,Herbicidal effect on C: oval-leafed pondweed (grade 0-5),oval-leafed pondweed,0 (Herbicidal rate of 5% or less (almost no effect))
same,effect on windgrass (L),windgrass [14],0 (Herbicidal rate of 5% or less (almost no effect))
same,"M: velvetleaf, herbicidal effect rating",velvetleaf [15]; AAH 320 g/ha,5 (Herbicidal rate of 90% or more (almost completely withered))
same,"Q: false cleavers, herbicidal effect rating",false cleavers [16]; AAH 320 g/ha,1 (Herbicidal rate of 5% or more and less than 20%)
same,"H: barnyard grass, herbicidal effect rating",barnyard grass [17]; AAH 320 g/ha,2 (Herbicidal rate of 20% or more and less than 40%)
same,"G: green foxtail, herbicidal effect rating",green foxtail [18]; AAH 320 g/ha,5 (Herbicidal rate of 90% or more (almost completely withered))
same,"R: persian speedwell, herbicidal effect rating",persian speedwell [19]; AAH 320 g/ha,5 (Herbicidal rate of 90% or more (almost completely withered))
same,effect on barnyard grass (H),barnyard grass [20]; 3 weeks after application,2 (Herbicidal rate of 20% or more and less than 40%)
same,"herbicidal effect on D (Chinese sprangletop), rating 0-5",Chinese sprangletop; 320 g/ha,3 (Herbicidal rate of 40% or more and less than 70%)
same,"N: redroot pigweed, herbicidal effect rating",redroot pigweed; AAH 320 g/ha,0 (Herbicidal rate of 5% or less (almost no effect))
same,"O: lambsquarters, herbicidal effect rating",lambsquarters [21]; AAH 320 g/ha,0 (Herbicidal rate of 5% or less (almost no effect))
same,"J: blackgrass, herbicidal effect rating",blackgrass [22]; AAH 320 g/ha,0 (Herbicidal rate of 5% or less (almost no effect))
same,effect on wild oat (I),wild oat [23]; 3 weeks after application,0 (Herbicidal rate of 5% or less (almost no effect))
same,"I: wild oat, herbicidal effect rating",wild oat [24]; AAH 320 g/ha,0 (Herbicidal rate of 5% or less (almost no effect))
CCCC(=O)Oc1c(C)nn(C)c(=O)c1-c1c(-c2ccc(F)cc2OC)sc2ccc(C)cc12 [2-149],herbicidal effect on E: rice flat sedge,rice flat sedge; [26],3 (Herbicidal rate of 40% or more and less than 70%)
same,"F: southern crabgrass, herbicidal effect rating",southern crabgrass [1]; [26],0 (Herbicidal rate of 5% or less (almost no effect))
same,herbicidal effect on Q: false cleavers (criteria 0-5),false cleavers [2]; [27],3 (Herbicidal rate of 40% or more and less than 70%)
same,herbicidal effect on R: persian speedwell (criteria 0-5),persian speedwell [3]; [27],3 (Herbicidal rate of 40% or more and less than 70%)
same,herbicidal effect on O: lambsquarters (criteria 0-5),lambsquarters [4]; [27],4 (Herbicidal rate of 70% or more and less than 90%)
same,herbicidal effect on K: Italian ryegrass (criteria 0-5),Italian ryegrass [5]; [27],0 (Herbicidal rate of 5% or less (almost no effect))
same,"K: Italian ryegrass, herbicidal effect rating",Italian ryegrass [6]; [26],0 (Herbicidal rate of 5% or less (almost no effect))
same,herbicidal effect on J: blackgrass (criteria 0-5),blackgrass [7]; [27],2 (Herbicidal rate of 20% or more and less than 40%)
same,Herbicidal effect on B: Japanese bulrush (grade 0-5),Japanese bulrush,1 (Herbicidal rate of 5% or more and less than 20%)
same,herbicidal effect on H: barnyard grass,barnyard grass [8]; [26],5 (Herbicidal rate of 90% or more (almost completely withered))
same,Herbicidal effect on A: late watergrass (grade 0-5),late watergrass,3 (Herbicidal rate of 40% or more and less than 70%)
same,herbicidal effect on G: green foxtail (criteria 0-5),green foxtail [9]; [27],5 (Herbicidal rate of 90% or more (almost completely withered))
same,"L: windgrass, herbicidal effect rating",windgrass [10]; [26],0 (Herbicidal rate of 5% or less (almost no effect))
same,"P: chickweed, herbicidal effect rating",chickweed [11]; [26],3 (Herbicidal rate of 40% or more and less than 70%)
same,herbicidal effect on F: southern crabgrass (criteria 0-5),southern crabgrass [12]; [27],3 (Herbicidal rate of 40% or more and less than 70%)
same,herbicidal effect on M: velvetleaf (criteria 0-5),velvetleaf [13]; [27],1 (Herbicidal rate of 5% or more and less than 20%)
same,Herbicidal effect on C: oval-leafed pondweed (grade 0-5),oval-leafed pondweed,0 (Herbicidal rate of 5% or less (almost no effect))
same,"M: velvetleaf, herbicidal effect rating",velvetleaf [15]; [26],0 (Herbicidal rate of 5% or less (almost no effect))
same,herbicidal effect on P: chickweed (criteria 0-5),chickweed [25],5 (Herbicidal rate of 90% or more (almost completely withered))
same,"Q: false cleavers, herbicidal effect rating",false cleavers [16]; [26],3 (Herbicidal rate of 40% or more and less than 70%)
same,"H: barnyard grass, herbicidal effect rating",barnyard grass [17]; [26],0 (Herbicidal rate of 5% or less (almost no effect))
same,"G: green foxtail, herbicidal effect rating",green foxtail [18]; [26],4 (Herbicidal rate of 70% or more and less than 90%)
same,"R: persian speedwell, herbicidal effect rating",persian speedwell [19]; [26],3 (Herbicidal rate of 40% or more and less than 70%)
same,herbicidal effect on H: barnyard grass (criteria 0-5),barnyard grass [20]; [27],3 (Herbicidal rate of 40% or more and less than 70%)
same,herbicidal effect on D: Chinese sprangletop,Chinese sprangletop; [26],0 (Herbicidal rate of 5% or less (almost no effect))
same,"N: redroot pigweed, herbicidal effect rating",redroot pigweed; [26],5 (Herbicidal rate of 90% or more (almost completely withered))
same,"O: lambsquarters, herbicidal effect rating",lambsquarters [21]; [26],4 (Herbicidal rate of 70% or more and less than 90%)
same,"J: blackgrass, herbicidal effect rating",blackgrass [22]; [26],0 (Herbicidal rate of 5% or less (almost no effect))
same,herbicidal effect on I: wild oat (criteria 0-5),wild oat [23]; [27],1 (Herbicidal rate of 5% or more and less than 20%)
same,"I: wild oat, herbicidal effect rating",wild oat [24]; [26],0 (Herbicidal rate of 5% or less (almost no effect))
